The values that follow come from patent US10351539B2, “Macrocyclic complexes, their process of preparation and use as PET imaging agents” (INSTITUT NATIONAL DE LA SANTE ET DE LA RECHERCHE MEDICALE …, priority 2014, dated 2019).

“Also recorded” adds a separate entry of the source.

Data set [1] in a line: Biodistribution in healthy and SRC bearing rats at 1 h after i.v. injection of radiolabelled compounds. The class given is in vivo. Particulars: mean ± SD (n = 3); for Articular Cartilage / Bladder / Blood / Kidney / Muscle / Liver: healthy and SRC bearing rats; for Liver: ND: at undetectable levels; for Tumor: SRC (Swarm Rat Chondrosarcoma) bearing rats. As for the experimental part: Quantitative biodistribution of radiolabelled compounds was determined in rats: healthy animals as well as rats with primary grade II orthotopic chondrosarcoma at stage Day-30 after induction. The chondrosarcoma model was the Swarm Rat Chondrosarcoma model (SRC) implanted in paratibial location. Radiolabelled compounds (5-10 Mbq/animal) were i.v. administered in the caudal vein of animals being anesthetized of mixture of ketamine (58 mg/kg i.p.) (Imalgéne 500®) and xylazine (6 mg/kg i.p.) (Rompun® 2%, Bayer, France). One hour after injection, animals were then sacrificed by CO2 inhalation, dissected and organs of interest removed, weighed and their radioactivity counted using a gamma counter (Model 1480 Wizard, Perkin Elmer Life Sciences, Boston, USA). Organs collected were blood, muscle, knee, kidneys, liver, thoracic ribs, bladder for both healthy and chondrosarcoma bearing rats. For SRC animals, tumour was also sampled. After radioactive decay correction, results were expressed for each organ as % injected dose per gram (% ID/g) and averaged per group.

Data set [2] can be described thus: Study 2: biodistribution in healthy New Zealand rabbits (gamma counting of dissected organs). Type of data set: in vivo. Particulars: for Uptake ratio Cartilage/Bone / Uptake ratio Cartilage/Muscle / Articular Cartilage / Bile / Blood / Bone / Bone Marrow / Kidney / Liver / Lung / Muscle / Spleen / Thyroid / Urine: i.v. As for the experimental part: Biodistribution were determined in 36 healthy New Zealand rabbits (18 males and 18 females, 14 weeks old, 3.5 kg weight, Charles River, France), being randomly divided into two groups: • One group receiving ^99mTc-NTP 15-5: 18±3 MBq/animal for biodistribution; • One group receiving ^64Cu-2: 17±4 MBq/animal for biodistribution.
The compounds were i.v. administered to anesthetized animals (ketamine/xylazine by intramuscular route) in the marginal ear vein.
At selected time points after injection (15 min, 1 h, 3 h, 6 h, 20 h after injection), animals (3 animals/time point/compound) were sacrificed by a lethal i.v. dose of pentobarbital. Organs of interest were dissected, weighed and their radioactivity measured using a gamma counter (Model 1480 Wizard, Perkin Elmer Life Sciences, Boston, USA). After radioactive decay correction, results were expressed for each organ as % injected dose per gram (% ID/g) and averaged per group and per time point.

Take `CC[N+](CC)(CC)CCCN1CCCN2CCN(CCCN(CC(=O)OC(C)(C)C)CC1)CC2.[64Cu+2]` [^64Cu-13, [^64Cu]-3-(8-(2-tert-Butoxy-2-oxoethyl)-1,5,8,12-tetraazabicyclo[10.2.2]hexadecan-5-yl)-N,N,N-triethylpropan-1-aminium copper(II)]: in data set [1], the Articular Cartilage was determined as 0.16 ± 0.06 % ID/g, the Bladder is reported as 11.83 % ID/g, the Blood is 0.07 ± 0.01 % ID/g and the Kidney was found to be 1.06 ± 0.66 % ID/g. In data set [1], this molecule came in with a Muscle of 0.03 ± 0.01 % ID/g and a Liver of 0.06 ± 0.01 % ID/g.

`CC[N+](CC)(CC)CCCN1CCNCCNCCNCCNCC1.[64Cu+2]` [^64Cu-2, [^64Cu]—N,N,N-Triethyl-3-(1,4,7,10,13-pentaazacyclopentadecan-1-yl)propan-1-aminium copper(II)]: in data set [1], the Tumor was 3.5 ± 0.5 % ID/g, the Articular Cartilage is given as 2.6 ± 1.1 % ID/g, the Bladder was 62.2 ± 17.6 % ID/g and the Blood stood at 0.1 ± 0.05 % ID/g. In data set [1], this molecule gave a Kidney of 16.4 ± 6.6 % ID/g and a Muscle of 0.4 ± 0.3 % ID/g. In data set [2], the “Accumulation in kidneys compared to ^99mTc-NTP 15-5” value is listed as “significantly higher”; the “Cartilage/muscle and cartilage/Bone ratios compared to ^99mTc-NTP 15-5” value is “higher”; the “Duration of liver accumulation compared to ^99mTc-NTP 15-5” value is reported as “shorter”. Also, the “Accumulation in cartilage (onset)” value in data set [2] (as early as 15 min p.i.) is “rapidly accumulate”. The “Uptake into the cartilages compared to ^99mTc-NTP 15-5” value in data set [2] (each time investigated) was “faster and higher uptake; also recorded: higher levels”. For the same molecule, in data set [2] (15 min), the “Uptake ratio Cartilage/Bone” value was 120 and the “Uptake ratio Cartilage/Muscle” value turned out to be 282. For the same molecule, in data set [2] (15 min after injection), the “Articular Cartilage” value was determined as 8.46 ± 6.18 % ID/g, the Bile worked out at 0.07 ± 0.04 % ID/g, the Blood is 0.31 ± 0.17 % ID/g and the Bone stood at 0.07 ± 0.02 % ID/g. In addition, in data set [2] (15 min after injection), the “Bone Marrow” value is on record as 0.08 ± 0.04 % ID/g, the Kidney is 0.65 ± 0.47 % ID/g, the Liver came out at 0.11 ± 0.03 % ID/g and the Lung was determined as 0.23 ± 0.14 % ID/g. In data set [2] (15 min after injection), the Muscle came out at 0.03 ± 0.02 % ID/g, the Spleen is recorded as 0.11 ± 0.08 % ID/g, the Thyroid stood at 0.11 ± 0.08 % ID/g and the Urine was 1.51 ± 2.22 % ID/g. Also, in data set [2] (1 h), the “Uptake ratio Cartilage/Bone” value was found to be 484 and the “Uptake ratio Cartilage/Muscle” value amounted to 484. Moreover, in data set [2] (1 h after injection), the “Articular Cartilage” value is on record as 4.81 ± 1.16 % ID/g, the Bile came to 0.03 ± 0.02 % ID/g, the Blood is given as 0.08 ± 0.02 % ID/g and the Bone was determined as 0.01 ± 0.00 % ID/g. For the same molecule, in data set [2] (1 h after injection), the “Bone Marrow” value is on record as 0.03 ± 0.01 % ID/g, the Kidney is 0.26 ± 0.07 % ID/g, the Liver is reported as 0.04 ± 0.01 % ID/g and the Lung was 0.07 ± 0.02 % ID/g. In data set [2] (1 h after injection), this molecule displayed a Muscle of 0.01 ± 0.00 % ID/g, a Spleen of 0.03 ± 0.01 % ID/g, a Thyroid of 0.03 ± 0.01 % ID/g and a Urine of 1.69 ± 2.14 % ID/g. In data set [2] (3 h after injection), the “Articular Cartilage” value is reported as 2.31 ± 0.32 % ID/g, the Bile is 0.11 ± 0.17 % ID/g, the Blood was 0.02 ± 0.00 % ID/g and the Bone is recorded as 0.01 ± 0.00 % ID/g. Besides, in data set [2] (3 h after injection), the “Bone Marrow” value is on record as 0.01 ± 0.00 % ID/g, the Kidney stood at 0.22 ± 0.01 % ID/g, the Liver came out at 0.02 ± 0.00 % ID/g and the Lung stood at 0.03 ± 0.00 % ID/g. In addition, in data set [2] (3 h after injection), the Muscle was 0.00 ± 0.00 % ID/g, the Spleen stood at 0.02 ± 0.00 % ID/g, the Thyroid came out at 0.04 ± 0.05 % ID/g and the Urine is recorded as 0.92 ± 0.63 % ID/g. In addition, in data set [2] (6 h after injection), the “Articular Cartilage” value came out at 1.00 ± 1.02 % ID/g, the Bile is given as 0.02 ± 0.02 % ID/g, the Blood is 0.02 ± 0.02 % ID/g and the Bone is given as 0.00 ± 0.00 % ID/g. Further, in data set [2] (6 h after injection), the “Bone Marrow” value is on record as 0.01 ± 0.01 % ID/g, the Kidney turned out to be 0.26 ± 0.14 % ID/g, the Liver is reported as 0.02 ± 0.02 % ID/g and the Lung was found to be 0.02 ± 0.02 % ID/g. In data set [2] (6 h after injection), this molecule displayed a Muscle of 0.00 ± 0.00 % ID/g, a Spleen of 0.02 ± 0.02 % ID/g, a Thyroid of 0.00 ± 0.00 % ID/g and a Urine of 6.90 ± 7.93 % ID/g. Moreover, in data set [2] (20 h after injection), the “Articular Cartilage” value stood at 0.10 ± 0.02 % ID/g, the Bile is 0.01 ± 0.00 % ID/g, the Blood was determined as 0.00 ± 0.00 % ID/g and the Bone is given as 0.00 ± 0.00 % ID/g. Besides, in data set [2] (20 h after injection), the “Bone Marrow” value is given as 0.00 ± 0.00 % ID/g, the Kidney was 0.06 ± 0.01 % ID/g, the Liver stood at 0.00 ± 0.00 % ID/g and the Lung is listed as 0.00 ± 0.00 % ID/g. In data set [2] (20 h after injection), this molecule came in with a Muscle of 0.00 ± 0.00 % ID/g, a Spleen of 0.01 ± 0.00 % ID/g, a Thyroid of 0.00 ± 0.00 % ID/g and a Urine of 0.25 ± 0.22 % ID/g. In data set [2] (indicated by accumulation in kidneys), the Urinary elimination result is recorded as “high/rapid”. For the same molecule, the “In vivo stability (release of ^64Cu from transchelation or transmetalation negligible)” value in data set [2] (inferred from liver uptake) is reported as “stable”.

In data set [1], `CC[N+](CC)(CC)CCCN1CCCN(Cc2ccccn2)CCNCCCN(Cc2ccccn2)CC1.[64Cu+2]` [^64Cu-30, [^64Cu]-3-(4,11-Bis(pyridin-2-ylmethyl)-1,4,8,11-tetraazacyclotetradecan-1-yl)-N,N,N-triethylpropan-1-aminium copper(II)] registered a Tumor of 4.2 ± 0.6 % ID/g, an Articular Cartilage of 2.7 ± 0.4 % ID/g, a Bladder of 25.2 ± 10.6 % ID/g and a Blood of 0.7 ± 0.2 % ID/g. Further, in data set [1], the Kidney came to 9.2 ± 0.9 % ID/g and the Muscle turned out to be 0.80 ± 0.4 % ID/g.

As to `CC[N+](CC)(CC)CCCN1CCCNCCN(Cc2ccccn2)CCCNCC1.[64Cu+2]` [^64Cu-27, [^64Cu]—N,N,N-Triethyl-3-(8-(pyridin-2-ylmethyl)-1,4,8,11-tetraazacyclotetradecan-1-yl)propan-1-aminium copper(II)], in data set [1], the Tumor was 1.4 ± 0.07 % ID/g, the Articular Cartilage is given as 1.5 ± 0.4 % ID/g, the Bladder was 30.5 ± 10.9 % ID/g and the Blood was 0.4 ± 0.07 % ID/g. In data set [1], this molecule came in with a Kidney of 7.6 ± 4.6 % ID/g, a Muscle of 0.43 ± 0.15 % ID/g and a Liver of 1.2 ± 0.4 % ID/g.

In data set [1], `CC[N+](CC)(CC)CCCN1CCCN2CCN(CCCN(CC(=O)O)CC1)CC2.[64Cu+2]` [^64Cu-14, [^64Cu]-3-(8-(Carboxymethyl)-1,5,8,12-tetraazabicyclo[10.2.2]hexadecan-5-yl)-N,N,N-triethylpropan-1-aminium copper(II)] gave an Articular Cartilage of 0.11 ± 0.02 % ID/g, a Bladder of 14.71 % ID/g, a Blood of 0.09 ± 0.04 % ID/g and a Kidney of 0.73 ± 0.22 % ID/g. In data set [1], this molecule yielded a Muscle of 0.04 ± 0.00 % ID/g and a Liver of 0.06 ± 0.02 % ID/g.
